Source: the NIST ThermoML archive (doi:10.1016/j.fluid.2017.02.012)

Settings: Liquid, Pendant drop shape

CCCCCCCCC [nonane] + O=C=O
Settings | interfacial tension [mN/m]
313.15 K, 500 kPa | 20.26
313.15 K, 1490 kPa | 17.76
313.15 K, 2460 kPa | 15.19
313.15 K, 3500 kPa | 12.77
313.15 K, 4500 kPa | 10.11
313.15 K, 5490 kPa | 7.35
313.15 K, 6620 kPa | 4.28
313.15 K, 7290 kPa | 2.5
333.15 K, 390 kPa | 18.9
333.15 K, 1440 kPa | 16.61
333.15 K, 2400 kPa | 14.76
333.15 K, 3320 kPa | 12.98
333.15 K, 4460 kPa | 11.05
333.15 K, 5400 kPa | 9.01
333.15 K, 6220 kPa | 7.55
333.15 K, 7290 kPa | 5.61
333.15 K, 8230 kPa | 3.83
353.15 K, 1080 kPa | 16.12
353.15 K, 2100 kPa | 14.28
353.15 K, 3090 kPa | 12.81
353.15 K, 4130 kPa | 11
353.15 K, 5130 kPa | 9.64
353.15 K, 6030 kPa | 8.29
353.15 K, 6990 kPa | 6.95
353.15 K, 8000 kPa | 5.67
353.15 K, 9400 kPa | 3.85
373.15 K, 1060 kPa | 14.6
373.15 K, 2110 kPa | 13.15
373.15 K, 3060 kPa | 11.85
373.15 K, 4190 kPa | 10.43
373.15 K, 5200 kPa | 9.22
373.15 K, 6210 kPa | 7.93
373.15 K, 7000 kPa | 7.04
373.15 K, 7990 kPa | 6.08
373.15 K, 9340 kPa | 4.61
373.15 K, 10460 kPa | 3.58
393.15 K, 940 kPa | 13.32
393.15 K, 3080 kPa | 10.78
393.15 K, 5700 kPa | 8.17
393.15 K, 9300 kPa | 4.7
393.15 K, 11410 kPa | 2.98

CCCCCCCCCCC [undecane] + O=C=O
Settings | interfacial tension [mN/m]
313.15 K, 340 kPa | 22.19
313.15 K, 1410 kPa | 19.54
313.15 K, 2530 kPa | 16.91
313.15 K, 3590 kPa | 14.36
313.15 K, 4700 kPa | 11.15
313.15 K, 5630 kPa | 8.47
313.15 K, 6540 kPa | 5.82
313.15 K, 7100 kPa | 3.75
333.15 K, 350 kPa | 20.59
333.15 K, 1700 kPa | 17.96
333.15 K, 3240 kPa | 14.87
333.15 K, 4730 kPa | 12.15
333.15 K, 5810 kPa | 9.86
333.15 K, 7190 kPa | 7.45
333.15 K, 8000 kPa | 5.82
333.15 K, 8910 kPa | 4.12
353.15 K, 440 kPa | 18.64
353.15 K, 1800 kPa | 16.41
353.15 K, 3430 kPa | 14.14
353.15 K, 4930 kPa | 11.74
353.15 K, 6480 kPa | 9.53
353.15 K, 7890 kPa | 7.53
353.15 K, 8940 kPa | 5.99
353.15 K, 10190 kPa | 4.39
373.15 K, 410 kPa | 17.05
373.15 K, 1880 kPa | 15.22
373.15 K, 3100 kPa | 13.86
373.15 K, 4410 kPa | 12.26
373.15 K, 5910 kPa | 10.19
373.15 K, 7020 kPa | 8.84
373.15 K, 8600 kPa | 7.05
373.15 K, 9900 kPa | 5.73
373.15 K, 11680 kPa | 3.99
393.15 K, 530 kPa | 15.69
393.15 K, 3300 kPa | 12.38
393.15 K, 5820 kPa | 9.76
393.15 K, 9300 kPa | 6.53
393.15 K, 12810 kPa | 3.55

CCCCCCCCCCCCCCC [pentadecane] + O=C=O
Settings | interfacial tension [mN/m]
313.15 K, 430 kPa | 21.65
313.15 K, 1100 kPa | 20.48
313.15 K, 2090 kPa | 18.38
313.15 K, 3090 kPa | 16.15
313.15 K, 4080 kPa | 14.04
313.15 K, 5090 kPa | 11.41
313.15 K, 6090 kPa | 8.91
313.15 K, 6890 kPa | 6.25
313.15 K, 8060 kPa | 2.69
333.15 K, 360 kPa | 20.84
333.15 K, 1380 kPa | 19.61
333.15 K, 2390 kPa | 17.57
333.15 K, 3490 kPa | 15.7
333.15 K, 4330 kPa | 14.41
333.15 K, 5290 kPa | 12.81
333.15 K, 5990 kPa | 11.75
333.15 K, 7290 kPa | 9.17
333.15 K, 8400 kPa | 6.86
333.15 K, 9860 kPa | 4.22
353.15 K, 580 kPa | 19.83
353.15 K, 1630 kPa | 18.11
353.15 K, 2790 kPa | 17.01
353.15 K, 3610 kPa | 15.63
353.15 K, 4630 kPa | 14.2
353.15 K, 5700 kPa | 12.85
353.15 K, 6630 kPa | 11.53
353.15 K, 7720 kPa | 9.79
353.15 K, 8560 kPa | 8.69
353.15 K, 9490 kPa | 7.32
353.15 K, 10730 kPa | 5.87
353.15 K, 11560 kPa | 4.82
353.15 K, 12000 kPa | 4.24
373.15 K, 1080 kPa | 18.21
373.15 K, 2060 kPa | 16.61
373.15 K, 3240 kPa | 15.25
373.15 K, 4280 kPa | 14.53
373.15 K, 5390 kPa | 13.01
373.15 K, 6240 kPa | 12.08
373.15 K, 7340 kPa | 10.81
373.15 K, 8340 kPa | 9.6
373.15 K, 9400 kPa | 8.42
373.15 K, 10490 kPa | 7.37
373.15 K, 12060 kPa | 5.74
373.15 K, 13190 kPa | 4.64
373.15 K, 13960 kPa | 4.06
393.15 K, 3280 kPa | 14.72
393.15 K, 5680 kPa | 12.36
393.15 K, 8600 kPa | 9.58
393.15 K, 11400 kPa | 6.86
393.15 K, 14720 kPa | 4.22

CCCCCCCCCCCCCCCCC [heptadecane] + O=C=O
Settings | interfacial tension [mN/m]
313.15 K, 390 kPa | 25.11
313.15 K, 1300 kPa | 22.73
313.15 K, 2350 kPa | 20.26
313.15 K, 3500 kPa | 17.14
313.15 K, 5000 kPa | 13.27
313.15 K, 6500 kPa | 9.3
313.15 K, 8000 kPa | 5.34
313.15 K, 9000 kPa | 2.7
333.15 K, 750 kPa | 22.56
333.15 K, 1860 kPa | 20.55
333.15 K, 2830 kPa | 18.33
333.15 K, 3810 kPa | 16.6
333.15 K, 4850 kPa | 14.57
333.15 K, 5930 kPa | 12.56
333.15 K, 7090 kPa | 10.2
333.15 K, 8280 kPa | 8.07
333.15 K, 9630 kPa | 5.7
333.15 K, 10600 kPa | 4.26
353.15 K, 940 kPa | 19.98
353.15 K, 1910 kPa | 18.81
353.15 K, 3030 kPa | 17.6
353.15 K, 4000 kPa | 16.02
353.15 K, 5220 kPa | 14.29
353.15 K, 6110 kPa | 12.99
353.15 K, 7210 kPa | 11.23
353.15 K, 8580 kPa | 9.36
353.15 K, 9500 kPa | 8.34
353.15 K, 10740 kPa | 6.77
353.15 K, 12020 kPa | 5.27
353.15 K, 13180 kPa | 4.15
373.15 K, 920 kPa | 19.2
373.15 K, 2390 kPa | 17.81
373.15 K, 4000 kPa | 15.65
373.15 K, 5490 kPa | 13.83
373.15 K, 7260 kPa | 11.8
373.15 K, 9000 kPa | 9.93
373.15 K, 10800 kPa | 8.1
373.15 K, 12560 kPa | 6.21
373.15 K, 13470 kPa | 5.47
373.15 K, 14640 kPa | 4.43
393.15 K, 1190 kPa | 18.38
393.15 K, 4320 kPa | 14.69
393.15 K, 6780 kPa | 12.43
393.15 K, 10600 kPa | 8.46
393.15 K, 13920 kPa | 5.87

CCCCCCCCCCCCC [tridecane] + O=C=O
Settings | interfacial tension [mN/m]
313.15 K, 550 kPa | 22.3
313.15 K, 2100 kPa | 18.58
313.15 K, 3240 kPa | 15.83
313.15 K, 4300 kPa | 13.06
313.15 K, 5300 kPa | 10.43
313.15 K, 5940 kPa | 8.57
313.15 K, 7490 kPa | 3.8
333.15 K, 330 kPa | 21.41
333.15 K, 1360 kPa | 19.62
333.15 K, 2440 kPa | 17.54
333.15 K, 3580 kPa | 15.34
333.15 K, 5410 kPa | 11.87
333.15 K, 5930 kPa | 10.74
333.15 K, 6830 kPa | 9.08
333.15 K, 8000 kPa | 6.91
333.15 K, 8780 kPa | 5.38
333.15 K, 9410 kPa | 4.25
333.15 K, 10010 kPa | 3.24
353.15 K, 440 kPa | 19.97
353.15 K, 1760 kPa | 17.82
353.15 K, 3190 kPa | 15.75
353.15 K, 4830 kPa | 13.15
353.15 K, 5700 kPa | 11.84
353.15 K, 6050 kPa | 11.5
353.15 K, 7500 kPa | 9.24
353.15 K, 8990 kPa | 7.3
353.15 K, 10030 kPa | 5.75
353.15 K, 10880 kPa | 4.76
353.15 K, 11770 kPa | 3.76
373.15 K, 540 kPa | 18.67
373.15 K, 2380 kPa | 16.03
373.15 K, 4400 kPa | 13.13
373.15 K, 5790 kPa | 11.68
373.15 K, 8100 kPa | 9.03
373.15 K, 9910 kPa | 6.93
373.15 K, 12260 kPa | 4.57
373.15 K, 13710 kPa | 3.32
393.15 K, 410 kPa | 17.04
393.15 K, 4630 kPa | 12.6
393.15 K, 8730 kPa | 8.27
393.15 K, 13580 kPa | 4.32
